Measured values reported in US20050197350A1, “Novel quinoline, tetrahydroquinazoline, and pyrimidine derivatives and methods of treatment related to the use thereof” (TAISHO PHARMACEUTICAL CO., LTD., priority 2003, published 2005).

Tested on: MCH receptors
Test: MCH receptor activity class (method not given)
[1] = MCH receptor, class by percent of control at 10^-7 M or IC50
[2] = class by percent of control at 10^−7 M or IC50
[3] = activity class per percent of control at 10^-7 M or IC50
[4] = class by percent of control at 10^-7 M or IC50
[5] = class 1-3 by percent of control at 10^-7 M or IC50
[6] = MCH receptor activity class 1-3 (percent of control at 10^-7 M or IC50)
[7] = activity class 1-3: percent of control at 10^-7 M or IC50

With `CN(C)c1cc(N[C@H]2CC[C@@H](CNC(=O)Cc3ccccc3)CC2)nc2ccccc12` [compound 172] the class [1] was 3 (Class 3 The value of percent of control at 10^−7 M was more than 60% or the value of IC50 was more than 200 nM.).
With `CNc1nc(N[C@H]2CC[C@@H](NC(=O)c3ccc(Cl)c(Cl)c3)CC2)ncc1C` [compound 3030] the class [2] was 3 (Class 3 The value of percent of control at 10^−7 M was more than 60% or the value of IC50 was more than 200 nM.).
For `CCOc1ccccc1CN[C@H]1CC[C@@H](Nc2cc(N(C)C)c3ccccc3n2)CC1` [compound 1086], the class [3] was 3 (Class 3 The value of percent of control at 10^−7 M was more than 60% or the value of IC50 was more than 200 nM.).
In the case of `CN(C)c1cc(N[C@H]2CC[C@@H](NC(=S)Nc3cccc4ccccc34)CC2)nc2ccccc12` [compound 2174], the class [4] is reported as 3 (Class 3 The value of percent of control at 10^−7 M was more than 60% or the value of IC50 was more than 200 nM.).
`CN(C)c1nc(N[C@H]2CC[C@@H](NC(=O)c3ccc(F)c(F)c3)CC2)ncc1C(F)(F)F` [compound 3006] was tested, and the class [2] was 3 (Class 3 The value of percent of control at 10^−7 M was more than 60% or the value of IC50 was more than 200 nM.).
For `CN(C)c1cc(N[C@H]2CC[C@@H](CNCCCOc3ccccc3)CC2)nc2ccccc12` [compound 1471], the class [4] was 3 (Class 3 The value of percent of control at 10^−7 M was more than 60% or the value of IC50 was more than 200 nM.).
For `CN(C)c1nc(N[C@H]2CC[C@@H](CNC(=O)c3ccc4c(c3)OCO4)CC2)nc2c1CCCC2` [compound 609], the class [4] was 3 (Class 3 The value of percent of control at 10^−7 M was more than 60% or the value of IC50 was more than 200 nM.).
In the case of `CN(C)c1ccnc(N[C@H]2CC[C@@H](CNC(=O)c3ccc(F)cc3)CC2)n1` [compound 382], the class [4] is reported as 3 (Class 3 The value of percent of control at 10^−7 M was more than 60% or the value of IC50 was more than 200 nM.).
For `Cc1ncccc1C(=O)N[C@H]1CC[C@@H](Nc2nc(C)c(C)c(N(C)C)n2)CC1` [compound 2831], the class [2] was 3 (Class 3 The value of percent of control at 10^−7 M was more than 60% or the value of IC50 was more than 200 nM.).
For `CN(C)c1nc(N[C@H]2CC[C@@H](NC(=O)Nc3ccc4c(c3)C(F)(F)OC(F)(F)O4)CC2)nc2c1CCCC2` [compound 1913], the class [1] was 3 (Class 3 The value of percent of control at 10^−7 M was more than 60% or the value of IC50 was more than 200 nM.).
`COc1cc(OC)cc(C(=O)N[C@H]2CC[C@@H](Nc3nc(C)c(C)c(N(C)C)n3)CC2)c1` [compound 2840, N-(cis-4-{[4-(dimethylamino)-5,6-dimethylpyrimidin-2-yl]amino}cyclohexyl)-3,5-dimethoxybenzamide] was tested, and the class [2] was 1 (Class 1: The value of percent of control at 10^−7 M was less than 40% or the value of IC50 was less than 50 nM.).
In the case of `Cc1cc(CNC[C@H]2CC[C@@H](Nc3cc(N(C)C)c4ccccc4n3)CC2)ccc1O` [compound 1194], the class [4] is reported as 3 (Class 3 The value of percent of control at 10^−7 M was more than 60% or the value of IC50 was more than 200 nM.).
`CCOc1cccc(CN[C@H]2CC[C@@H](Nc3cc(N(C)C)c4ccccc4n3)CC2)c1` [compound 1452] was tested, and the class [4] was 3 (Class 3 The value of percent of control at 10^−7 M was more than 60% or the value of IC50 was more than 200 nM.).
With `Cc1ccc(C(=O)NC[C@H]2CC[C@@H](Nc3nccc(N(C)C)n3)CC2)cc1F` [compound 419] the class [5] was 3 (Class 3 The value of percent of control at 10^−7 M was more than 60% or the value of IC50 was more than 200 nM.).
With `CN(C)c1cc(N[C@H]2CC[C@@H](NC(=O)c3cc(C(C)(C)C)nn3Cc3ccccc3)CC2)nc2ccccc12` [compound 85] the class [1] was 3 (Class 3 The value of percent of control at 10^−7 M was more than 60% or the value of IC50 was more than 200 nM.).
`COc1cc(Br)cc(CNC[C@H]2CC[C@@H](Nc3nc4c(c(N(C)C)n3)CCCC4)CC2)c1O` [compound 1371] was tested, and the class [4] was 2 (Class 2: The value of percent of control at 10^−7 M was from 40% to 60% or the value of IC′50 was from 50 nM to 200 nM.).
With `CN(C)c1cc(N[C@H]2CC[C@@H](NCc3coc4ccc(Cl)cc4c3=O)CC2)nc2ccccc12` [compound 1113] the class [3] was 3 (Class 3 The value of percent of control at 10^−7 M was more than 60% or the value of IC50 was more than 200 nM.).
`CN(C)c1cc(N[C@H]2CC[C@@H](CNCc3ccccc3SC(F)(F)F)CC2)nc2ccccc12` [compound 1165] was tested, and the class [4] was 3 (Class 3 The value of percent of control at 10^−7 M was more than 60% or the value of IC50 was more than 200 nM.).
In the case of `Cc1cc(C)c(NC(=O)NC[C@H]2CC[C@@H](Nc3cc(N(C)C)c4ccccc4n3)CC2)c(C)c1` [compound 2367, N-[(cis-4-{[4-(dimethylamino)quinolin-2-yl]amino}cyclohexyl)methyl]-N′-mesitylurea], the class [6] is reported as 2 (Class 2: The value of percent of control at 10^−7 M was from 40% to 60% or the value of IC′50 was from 50 nM to 200 nM.).
In the case of `CN(C)c1nc(N[C@H]2CC[C@@H](CNC(=O)c3ccc(F)cc3Cl)CC2)nc2c1CCCC2` [compound 623], the class [4] is reported as 3 (Class 3 The value of percent of control at 10^−7 M was more than 60% or the value of IC50 was more than 200 nM.).
For `CN(C)c1nc(N[C@H]2CC[C@@H](CNC(=O)OCC(C)(C)C)CC2)nc2c1CCCC2` [compound 1600], the class [7] was 3 (Class 3 The value of percent of control at 10^−7 M was more than 60% or the value of IC50 was more than 200 nM.).
For `COc1ccccc1/C=C/CN[C@H]1CC[C@@H](Nc2cc(N(C)C)c3ccccc3n2)CC1` [compound 1112], the class [3] was 3 (Class 3 The value of percent of control at 10^−7 M was more than 60% or the value of IC50 was more than 200 nM.).
In the case of `CCSc1ncccc1C(=O)NC[C@H]1CC[C@@H](Nc2nc3c(c(N(C)C)n2)CCCC3)CC1` [compound 598], the class [5] is reported as 1 (Class 1: The value of percent of control at 10^−7 M was less than 40% or the value of IC50 was less than 50 nM.).
With `CN(C)c1nc(N[C@H]2CC[C@@H](CNC(=O)Nc3c(Cl)cccc3C(F)(F)F)CC2)nc2c1CCCC2` [compound 2465] the class [6] was 1 (Class 1: The value of percent of control at 10^−7 M was less than 40% or the value of IC50 was less than 50 nM.).
In the case of `CN(C)c1cc(N[C@H]2CC[C@@H](NC(=O)NCc3ccccc3F)CC2)nc2ccccc12` [compound 2143], the class [4] is reported as 3 (Class 3 The value of percent of control at 10^−7 M was more than 60% or the value of IC50 was more than 200 nM.).
For `CCOC(=O)CNC(=O)N[C@H]1CC[C@@H](Nc2nc3c(c(N(C)C)n2)CCCC3)CC1` [compound 1822], the class [4] was 3 (Class 3 The value of percent of control at 10^−7 M was more than 60% or the value of IC50 was more than 200 nM.).
With `Cc1noc(-c2ccccc2)c1NC(=O)N[C@H]1CC[C@@H](Nc2nccc(N(C)C)n2)CC1` [compound 2211] the class [4] was 3 (Class 3 The value of percent of control at 10^−7 M was more than 60% or the value of IC50 was more than 200 nM.).
With `CN(C)c1nc(N[C@H]2CC[C@@H](NC(=O)NC3CCCCC3)CC2)nc2c1CCCC2` [compound 1816] the class [4] was 3 (Class 3 The value of percent of control at 10^−7 M was more than 60% or the value of IC50 was more than 200 nM.).
For `CN(C)c1nc(N[C@H]2CC[C@@H](CNCc3cc(C(F)(F)F)ccc3F)CC2)nc2c1CCCC2` [compound 1395], the class [4] was 3 (Class 3 The value of percent of control at 10^−7 M was more than 60% or the value of IC50 was more than 200 nM.).
`CN(C)c1nc(N[C@H]2CC[C@@H](NC(=O)OCc3ccccc3Cl)CC2)nc2c1CCCC2` [compound 1596] was tested, and the class [7] was 3 (Class 3 The value of percent of control at 10^−7 M was more than 60% or the value of IC50 was more than 200 nM.).
With `Cc1cc(Cl)cc(Cl)c1NC(=S)N[C@H]1CC[C@@H](Nc2cc(N(C)C)c3ccccc3n2)CC1` [compound 2301, N-(2,4-dichloro-6-methylphenyl)-N′-(cis-4-{[4-(dimethylamino)quinolin-2-yl]amino}cyclohexyl)thiourea] the class [6] was 1 (Class 1: The value of percent of control at 10^−7 M was less than 40% or the value of IC50 was less than 50 nM.).
With `Cc1cc([N+](=O)[O-])ccc1NC(=S)N[C@H]1CC[C@@H](Nc2nc3c(c(N(C)C)n2)CCCC3)CC1` [compound 1771] the class [4] was 3 (Class 3 The value of percent of control at 10^−7 M was more than 60% or the value of IC50 was more than 200 nM.).
With `CN(C)c1ccnc(N[C@H]2CC[C@@H](NCc3ccc(F)c(Cl)c3)CC2)n1` [compound 1242] the class [4] was 3 (Class 3 The value of percent of control at 10^−7 M was more than 60% or the value of IC50 was more than 200 nM.).
With `Cc1cc(N(C)C)nc(N[C@H]2CC[C@@H](C(=O)NCc3ccc(F)cc3F)CC2)n1` [compound 2818, cis-N-(2,4-difluorobenzyl)-4-{[4-(dimethylamino)-6-methylpyrimidin-2-yl]amino}cyclohexanecarboxamide] the class [2] was 1 (Class 1: The value of percent of control at 10^−7 M was less than 40% or the value of IC50 was less than 50 nM.).
With `COc1ccccc1C(=O)N[C@H]1CC[C@@H](Nc2nc(C)cc(N(C)C)n2)CC1` [compound 2955] the class [2] was 3 (Class 3 The value of percent of control at 10^−7 M was more than 60% or the value of IC50 was more than 200 nM.).
`CN(C)c1ccnc(N[C@H]2CC[C@@H](CNC(=O)Oc3cccc(C(F)(F)F)c3)CC2)n1` [compound 1642] was tested, and the class [7] was 3 (Class 3 The value of percent of control at 10^−7 M was more than 60% or the value of IC50 was more than 200 nM.).
With `CCCc1c(CNC[C@H]2CC[C@@H](Nc3nc4c(c(N(C)C)n3)CCCC4)CC2)cnn1-c1ccc(Cl)cc1` [compound 1511] the class [4] was 1 (Class 1: The value of percent of control at 10^−7 M was less than 40% or the value of IC50 was less than 50 nM.).
`CN(C)c1ccnc(N[C@H]2CC[C@@H](CNCc3ccccc3OC(F)(F)F)CC2)n1` [compound 1289] was tested, and the class [4] was 3 (Class 3 The value of percent of control at 10^−7 M was more than 60% or the value of IC50 was more than 200 nM.).
In the case of `CN(C)c1cc(N[C@H]2CC[C@@H](CNC(=O)c3cccc(Cl)c3)CC2)nc2ccccc12` [compound 151], the class [1] is reported as 3 (Class 3 The value of percent of control at 10^−7 M was more than 60% or the value of IC50 was more than 200 nM.).
For `COc1ccc(CN[C@H]2CC[C@@H](Nc3cc(N(C)C)c4ccccc4n3)CC2)c2ccccc12` [compound 1089], the class [3] was 3 (Class 3 The value of percent of control at 10^−7 M was more than 60% or the value of IC50 was more than 200 nM.).
